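1) Cells in 96-well plates. 2) Compound, 48 h, 5 concentrations. 3) Linear interpolation between surrounding doses. 4) Unreached endpoint = highest concentration. The concentration for 50% growth inhibition is given as GI50. Definition used: TGI = concentration required for complete inhibition of growth.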
What was measured:
Experiment in all cases: inhibition of tumour cell growth, NCI panel, 48 h
SK-MEL-28 melanoma = system: SK-MEL-28 melanoma
HOP-62 NSCLC = system: HOP-62 NSCLC
MDA-MB-231 breast = system: MDA-MB-231 breast
SF-295 CNS = system: SF-295 CNS
786-0 renal = system: 786-0 renal
RXF 393 renal = system: RXF 393 renal
UO-31 renal = system: UO-31 renal
CCRF-CEM leukemia = system: CCRF-CEM leukemia
UACC-62 melanoma = system: UACC-62 melanoma
NCI-H226 lung = system: NCI-H226 lung
NCI/ADR-RES ovarian = system: NCI/ADR-RES ovarian
HS 578T breast = system: HS 578T breast
SF-268 CNS = system: SF-268 CNS
OVCAR-5 ovarian = system: OVCAR-5 ovarian
ACHN renal = system: ACHN renal
NCI-H522 lung = system: NCI-H522 lung
SF-539 CNS = system: SF-539 CNS
HCT-15 colon = system: HCT-15 colon
U251 CNS = system: U251 CNS
MOLT-4 leukemia = system: MOLT-4 leukemia
HCT-116 colon = system: HCT-116 colon
HCC-2998 colon = system: HCC-2998 colon
SK-OV-3 ovarian = system: SK-OV-3 ovarian
TK-10 renal = system: TK-10 renal
A498 renal = system: A498 renal
MDA-MB-468 breast = system: MDA-MB-468 breast
MALME-3M melanoma = system: MALME-3M melanoma
KM12 colon = system: KM12 colon
SNB-19 CNS = system: SNB-19 CNS
PC-3 prostate = system: PC-3 prostate
SR leukemia = system: SR leukemia
MCF7 breast = system: MCF7 breast
OVCAR-8 ovarian = system: OVCAR-8 ovarian
CAKI-1 renal = system: CAKI-1 renal
HOP-92 NSCLC = system: HOP-92 NSCLC
OVCAR-4 ovarian = system: OVCAR-4 ovarian
RPMI-8226 leukemia = system: RPMI-8226 leukemia
NCI-H460 lung = system: NCI-H460 lung
BT-549 breast = system: BT-549 breast
IGROV1 ovarian = system: IGROV1 ovarian
T-47D breast = system: T-47D breast

## O=C(Nc1ccc(C(F)(F)F)cc1)Nc1ccc2oc(=O)ccc2c1
SK-MEL-28 melanoma
  GI50: > 100 µM
  TGI: > 100 µM
HOP-62 NSCLC
  GI50: 9.77 µM
  TGI: > 100 µM
MDA-MB-231 breast
  GI50: 11.7 µM
  TGI: > 100 µM
SF-295 CNS
  GI50: 2.63 µM
  TGI: > 100 µM
786-0 renal
  GI50: 19.3 µM
  TGI: > 100 µM
RXF 393 renal
  GI50: 18.2 µM
  TGI: > 100 µM
UO-31 renal
  GI50: 2.14 µM
  TGI: > 100 µM
CCRF-CEM leukemia
  GI50: 3.2 µM
  TGI: > 100 µM
UACC-62 melanoma
  GI50: 5.76 µM
  TGI: > 100 µM
NCI-H226 lung
  GI50: 3.67 µM
  TGI: > 100 µM
NCI/ADR-RES ovarian
  GI50: 3.86 µM
  TGI: > 100 µM
HS 578T breast
  GI50: 16.7 µM
  TGI: > 100 µM
SF-268 CNS
  GI50: 18.6 µM
  TGI: > 100 µM
OVCAR-5 ovarian
  GI50: > 100 µM
  TGI: > 100 µM
ACHN renal
  GI50: 2.7 µM
  TGI: > 100 µM
NCI-H522 lung
  GI50: 2.8 µM
  TGI: > 100 µM
SF-539 CNS
  GI50: 5.81 µM
  TGI: > 100 µM
HCT-15 colon
  GI50: 2.91 µM
  TGI: > 100 µM
U251 CNS
  GI50: 4.34 µM
  TGI: > 100 µM
MOLT-4 leukemia
  GI50: 2.86 µM
  TGI: > 100 µM
HCT-116 colon
  GI50: 2.95 µM
  TGI: > 100 µM
HCC-2998 colon
  GI50: 3.51 µM
  TGI: > 100 µM
SK-OV-3 ovarian
  GI50: 91.4 µM
  TGI: > 100 µM
TK-10 renal
  GI50: > 100 µM
  TGI: > 100 µM
A498 renal
  GI50: > 100 µM
  TGI: > 100 µM
MDA-MB-468 breast
  GI50: 2.97 µM
  TGI: > 100 µM
MALME-3M melanoma
  GI50: 4.87 µM
  TGI: > 100 µM
KM12 colon
  GI50: 3.51 µM
  TGI: > 100 µM
SNB-19 CNS
  GI50: 4.37 µM
  TGI: > 100 µM
PC-3 prostate
  GI50: 2.34 µM
  TGI: > 100 µM
SR leukemia
  GI50: 3.86 µM
  TGI: > 100 µM
MCF7 breast
  GI50: 2.48 µM
  TGI: > 100 µM
OVCAR-8 ovarian
  GI50: 5.93 µM
  TGI: > 100 µM
CAKI-1 renal
  GI50: 2.58 µM
  TGI: > 100 µM
HOP-92 NSCLC
  GI50: 1.49 µM
  TGI: 5.73 µM
OVCAR-4 ovarian
  GI50: 5.4 µM
  TGI: > 100 µM
RPMI-8226 leukemia
  GI50: 2.04 µM
  TGI: 5.87 µM
NCI-H460 lung
  GI50: 4.17 µM
  TGI: > 100 µM
BT-549 breast
  GI50: 3.4 µM
  TGI: > 100 µM
IGROV1 ovarian
  GI50: 3.55 µM
  TGI: > 100 µM
T-47D breast
  GI50: 2.85 µM
  TGI: > 100 µM
